Values after ≈ are worked out from the molar mass of the structure shown. Read-outs that look alike come from different tables or passages of the source.
Key:
[1] = system: Bac.Subt.ATCC 6633; assay: agar serial dilution test; format: cell-based, Bacillus subtilis; conditions: Bacillus subtilis, agar serial dilution, 24 hours, 37° C., read-out: minimal inhibitory concentration (MIC)
[2] = system: Staph.aureus A 321; assay: agar serial dilution test; format: cell-based, Staphylococcus aureus; conditions: Staphylococcus aureus, agar serial dilution, 24 hours, 37° C., read-out: minimal inhibitory concentration (MIC)
[3] = system: Staph.aureus A 2000; assay: agar serial dilution test; format: cell-based, Staphylococcus aureus; conditions: Staphylococcus aureus, agar serial dilution, 24 hours, 37° C., read-out: minimal inhibitory concentration (MIC)
[4] = system: Staph.aureus A 2001; assay: agar serial dilution test; format: cell-based, Staphylococcus aureus; conditions: Staphylococcus aureus, A2001, 24 h, agar serial dilution, 24 hours, 37° C.; read-out: minimal inhibitory concentration (MIC)
[5] = system: Strep. faec. L 80; assay: agar serial dilution test; format: cell-based, Streptococcus faecalis; conditions: Enterococcus faecalis; agar serial dilution, 24 hours, 37° C.; read-out: minimal inhibitory concentration (MIC)
[6] = system: Dipl.pneum. L 54; assay: agar serial dilution test; format: cell-based, Diplococcus pneumoniae; conditions: Streptococcus pneumoniae; agar serial dilution, 24 hours, 37° C.; read-out: minimal inhibitory concentration (MIC)
[7] = system: Bruc.melit. A 488; assay: microbe, parasite or virus in culture; format: cell-based; conditions: Brucella melitensis, 24 h, read-out: minimal inhibitory concentration (MIC)
[8] = system: Past.multo. A 723; assay: agar serial dilution test; format: cell-based, Pasteurella multocida; conditions: Pasteurella multocida; agar serial dilution, 24 hours, 37° C.; read-out: minimal inhibitory concentration (MIC)
[9] = system: Kleb.pneum. A 809; assay: agar serial dilution test; format: cell-based, Klebsiella pneumoniae; conditions: Klebsiella pneumoniae; agar serial dilution, 24 hours, 37° C.; read-out: minimal inhibitory concentration (MIC)
[10] = system: Salm.dubl. P 43; assay: agar serial dilution test; format: cell-based, Salmonella dublin; conditions: Salmonella enterica; agar serial dilution, 24 hours, 37° C.; read-out: minimal inhibitory concentration (MIC)
[11] = system: Salm.typh. R 127; assay: agar serial dilution test; format: cell-based; conditions: 24 h, 37° C., read-out: minimal inhibitory concentration (MIC)
[12] = system: Esch.coli U 20; assay: agar serial dilution test; format: cell-based, Escherichia coli; conditions: Escherichia coli, agar serial dilution, 24 hours, 37° C., read-out: minimal inhibitory concentration (MIC)
[13] = system: Shig.equir. T 3; assay: agar serial dilution test; format: cell-based; conditions: 24 h, 37° C., read-out: minimal inhibitory concentration (MIC)
[14] = system: Pseud.aerug. H 10; assay: agar serial dilution test; format: cell-based; conditions: agar serial dilution, 24 hours, 37° C.; read-out: minimal inhibitory concentration (MIC)
[15] = system: Pseud.aerug. 2396; assay: agar serial dilution test; format: cell-based; conditions: agar serial dilution, 24 hours, 37° C.; read-out: minimal inhibitory concentration (MIC)
[16] = system: Pseud.aerug. Wyeth A 1058; assay: agar serial dilution test; format: cell-based; conditions: agar serial dilution, 24 hours, 37° C.; read-out: minimal inhibitory concentration (MIC)
[17] = system: Prot.rettg. A 821; assay: agar serial dilution test; format: cell-based, Proteus rettgeri; conditions: Providencia rettgeri, agar serial dilution, 24 hours, 37° C., read-out: minimal inhibitory concentration (MIC)
[18] = system: Prot.mirab. H 3; assay: agar serial dilution test; format: cell-based, Proteus mirabilis; conditions: Proteus mirabilis, agar serial dilution, 24 hours, 37° C., read-out: minimal inhibitory concentration (MIC)
[19] = system: Prot.mirab. L 93; assay: agar serial dilution test; format: cell-based, Proteus mirabilis; conditions: Proteus mirabilis, 24 h
[20] = system: Prot.mirab. A 1200; assay: agar serial dilution test; format: cell-based, Proteus mirabilis; conditions: Proteus mirabilis, 24 h, agar serial dilution, 24 hours, 37° C.; read-out: minimal inhibitory concentration (MIC)
[21] = system: Prot.morg. 2241; assay: agar serial dilution test; format: cell-based; conditions: agar serial dilution, 24 hours, 37° C., read-out: minimal inhibitory concentration (MIC)
[22] = system: Staph.aureus A 355; assay: micro serial dilution test; format: cell-based, Staphylococcus aureus; conditions: Staphylococcus aureus, A355; micro serial dilution (in brackets), about 18 hours, 30° C. or 37° C.; penicillinase-producing strain; read-out: minimal inhibitory concentration (MIC)
From the text: Two drops of a stock solution of the test compound (antibiotic) in a known concentration were brought into the first hole of a test plate with 9 numbered holes with a sterile Pasteur pipette. After rinsing this pipette three times with a physiological NaCl-solution, two drops of a stock solution of the test organism in a culture medium were brought in all the holes except for hole 8. In the first hole, the solution of the tested compound had been half diluted, then by stirring the liquid in the first hole and adding two drops of this mixture to the second hole and so on until hole 8, dilutions of the test compound solution were obtained in geometrical progression. The hole 9 contained no antibiotic and served for checking the growth of the testogranism in a blank medium. The test plate was incubated at 30° C. or 37° C. for about 18 hours.
^1 Penicillinase-producing strain

[23] = system: Staph.aureus A 2000; assay: micro serial dilution test; format: cell-based, Staphylococcus aureus; conditions: Staphylococcus aureus, A2000, 18 h, micro serial dilution (in brackets), about 18 hours, 30° C. or 37° C.; read-out: minimal inhibitory concentration (MIC)
[24] = system: Staph.aureus A 2001; assay: micro serial dilution test; format: cell-based, Staphylococcus aureus; conditions: Staphylococcus aureus, micro serial dilution (in brackets), about 18 hours, 30° C. or 37° C., read-out: minimal inhibitory concentration (MIC)
[25] = system: Haem.infl. A 1030; assay: micro serial dilution test; format: cell-based; conditions: micro serial dilution (in brackets), about 18 hours, 30° C. or 37° C., read-out: minimal inhibitory concentration (MIC)
[26] = system: Staph.aureus A 355; assay: agar serial dilution test; conditions: Staphylococcus aureus, A355, 24 h
[27] = system: Strep.haem. A 266; assay: agar serial dilution test; format: cell-based, Streptococcus haemolyticus; conditions: Streptococcus; agar serial dilution, 24 hours, 37° C.; read-out: minimal inhibitory concentration (MIC)

Compound: Cc1noc(C(C(=O)N[C@@H]2C(=O)N3[C@@H]2SC(C)(C)[C@@H]3C(=O)O)c2ccccc2)n1 (mixture of isomers) [Example 6, sodium DL-6-{[α-phenyl-3-methyl-1,2,4-oxadiazol-5-yl-]-acetamido}-penicillanate]
- MIC ([1]; ATCC6633, 24 h): 0.03 µg/mL
- MIC ([2]; A321, 24 h): 0.25 µg/mL
- MIC ([3]; A2000, 24 h): 1.5 µg/mL
- MIC [4]: 1 µg/mL
- MIC [5]: 1 µg/mL
- MIC [6]: 0.06 µg/mL
- MIC [7]: 1 µg/mL
- MIC [8]: 1 µg/mL
- MIC [9]: 100 µg/mL
- MIC [10]: 100 µg/mL
- MIC [11]: > 100 µg/mL
- MIC ([12]; U20): 100 µg/mL
- MIC [13]: 12.5 µg/mL
- MIC [14]: > 100 µg/mL
- MIC [15]: > 100 µg/mL
- MIC [16]: > 100 µg/mL
- MIC ([17]; 24 h): 3 µg/mL
- MIC [18]: 100 µg/mL
- MIC ([19]; read-out: minimal inhibitory concentration (MIC), agar serial dilution, 24 hours, 37° C.): 12.5 µg/mL
- MIC [20]: 100 µg/mL
- MIC ([21]; 24 h): > 100 µg/mL
- MIC [22]: 125 µg/mL
- MIC [23]: 23 µg/mL
- MIC ([24]; A2001, 18 h): 2.5 µg/mL
- MIC ([25]; 18 h): 1.2 µg/mL
- MIC ([26]; read-out: minimal inhibitory concentration (MIC), agar serial dilution, 24 hours, 37° C., penicillinase-producing strain): 25 µg/mL

Compound: CC(=O)OCC1=C(C(=O)O)N2C(=O)[C@@H](NC(=O)Cc3ccccc3)[C@H]2SC1 [Cephalosporin G, reference compound]
- MIC ([1]; ATCC6633): 0.09 µg/mL (≈ 0.231 µM)
- MIC ([2]; A321): 1.5 µg/mL (≈ 3.84 µM)
- MIC ([3]; A2000): 1.5 µg/mL (≈ 3.84 µM)
- MIC [27]: 0.03 µg/mL (≈ 0.0768 µM)
- MIC [5]: 25 µg/mL (≈ 64 µM)
- MIC [6]: 0.06 µg/mL (≈ 0.154 µM)
- MIC [7]: 2 µg/mL (≈ 5.12 µM)
- MIC [8]: 1 µg/mL (≈ 2.56 µM)
- MIC [9]: 1 µg/mL (≈ 2.56 µM)
- MIC [10]: 6 µg/mL (≈ 15.4 µM)
- MIC ([12]; U20, 24 h): 50 µg/mL (≈ 128 µM)
- MIC [13]: 25 µg/mL (≈ 64 µM)
- MIC [14]: > 100 µg/mL
- MIC [15]: > 100 µg/mL
- MIC [16]: > 100 µg/mL
- MIC [17]: 25 µg/mL (≈ 64 µM)
- MIC ([18]; 24 h): 25 µg/mL (≈ 64 µM)
- MIC ([19]; agar serial dilution, 24 hours, 37° C., read-out: minimal inhibitory concentration (MIC)): 2 µg/mL (≈ 5.12 µM)
- MIC [21]: > 100 µg/mL
- MIC [22]: 1.8 µg/mL (≈ 4.61 µM)
- MIC ([24]; A2001): 0.9 µg/mL (≈ 2.31 µM)
- MIC [25]: 125 µg/mL (≈ 320 µM)
- MIC ([26]; read-out: minimal inhibitory concentration (MIC)): 1.5 µg/mL (≈ 3.84 µM)
